This is an account of results in article PMC8329197, “Compounds targeting OSBPL7 increase ABCA1-dependent cholesterol efflux preserving kidney function in two models of kidney disease” (Nature Communications, 2021).

The subject of assay [1] is T1, OSBPL7 single mutations in the putative ORD.
T1 construct: Plasmids expressing each as a full-length protein with a C-terminal FLAG tag were obtained; expressed in transfected cells; host or cells: HEK293
As to the kind of experiment: ^3H-Cpd K binding to OSBPL7 single mutants (cross-linking/immunoprecipitation). Details: species or system human. The conditions noted are these: K636A vs wild type. The text has this: Based on the model, we identified key amino acid residues predicted to line the OSBPL7 ligand-binding pocket, and introduced a series of single mutations. Each mutant was transfected into cells and tested for ^3H-Cpd K binding. Mutation of lysine 636 to alanine reduced the ability of Cpd K to be crosslinked to OSBPL7 by ~75% (Fig. 3b). […] The homology model also predicts that a hydrophobic beta sheet lines the pocket, defined by amino acids that are conserved in the ORDs of other OSBPs (Ile641, Val616, Val618, and Lys636).
Briefly, a plasmid expressing a candidate target of interest fused with a FLAG tag was transfected into HEK293 cells. After 24 h, tritiated compound K at a concentration capable of inducing ABCA1-mediated cholesterol efflux (1.0 μM) was added for 3 h, then the live cells were exposed to UV-light (ʎ = 336 nm) to query potential compound/target cross-linking in situ. Cell lysates were prepared, the expressed protein was then selectively immunoprecipitated using an anti-FLAG antibody coupled to sepharose beads, bound proteins were separated by SDS-PAGE, and two identical blots were prepared and probed by western blot and by autoradiography to detect protein expression and presence or absence of compound crosslinking, respectively. The flow chart of this screen is illustrated in Fig. 2. […]

Assay [2] relates to human THP1 macrophages. As to the kind of experiment: apoAI-mediated (ABCA1) cholesterol efflux from cholesterol-loaded THP1 macrophages. Details: ABCA1 Efflux %: dose or concentration left out as unconfirmed. In kind it is cell-based.
The subject of assay [3] is T2, OSBPL7.
T2 construct: Plasmids expressing each as a full-length protein with a C-terminal FLAG tag were obtained; expressed in transfected cells; host or cells: HEK293
Put plainly: Competition with ^3H-Cpd K UV cross-linking to FLAG-tagged OSBPL7 in HEK293 cells (immunoprecipitation, autoradiography). In kind it is binding, human. On the set-up: OSBP7 percentage of inhibition / OSBP7 percentage of inhibition, average: concentration or dose not given beside the values; OSBPL7 Competition %: dose or concentration left out as unconfirmed. On the procedure:
Briefly, a plasmid expressing a candidate target of interest fused with a FLAG tag was transfected into HEK293 cells. After 24 h, tritiated compound K at a concentration capable of inducing ABCA1-mediated cholesterol efflux (1.0 μM) was added for 3 h, then the live cells were exposed to UV-light (ʎ = 336 nm) to query potential compound/target cross-linking in situ. Cell lysates were prepared, the expressed protein was then selectively immunoprecipitated using an anti-FLAG antibody coupled to sepharose beads, bound proteins were separated by SDS-PAGE, and two identical blots were prepared and probed by western blot and by autoradiography to detect protein expression and presence or absence of compound crosslinking, respectively. The flow chart of this screen is illustrated in Fig. 2. Figure 2d illustrates the ability of Cpd A and Cpd G to displace tritiated Cpd K from overexpressed and immunoprecipitated OSBPL7. Figure 3b illustrates the use of this assay to detect binding of tritiated Cpd K to overexpressed and immunoprecipitated variants of OSBPL7 containing point mutations in the predicted oxysterol binging pocket of OSBPL7. The advantages of this method are: i. the use of plasmid transfection leads to high expression of each candidate which reduces the likelihood to miss an authentic target for those which may be expressed at low endogenous levels, ii. the interaction of the chemical probe with its target occurs in a relevant biological context (live cells) at a pharmacologically active concentration, and iii. immunoprecipitation allows the expressed protein of interest to be purified from background proteins, substantially improving the signal/noise ratio.

Assay [4] has as its target human cannabinoid 1 receptor (hCB1-R) (Homo sapiens, UniProt P21554). As to the kind of experiment: Potency for binding to the CB1R in vitro (Ki). The conditions noted are these: for Ki: human CB1 receptor binding.
The test system of assay [5] is Col4a3 KO mice. Put plainly: Alport syndrome model: ACR, serum creatinine, BUN, body weight (also vs ramipril). The conditions noted are these: 8-week old Col4a3 KO mice, 28 days treatment starting at the age of 4 weeks; individual mouse values.

Where “and” joins values, the source holds several entries; their conditions need not be identical. Equal entries are not always repeated.

human cannabinoid 1 receptor (hCB1-R), sequence (P21554 whole entry): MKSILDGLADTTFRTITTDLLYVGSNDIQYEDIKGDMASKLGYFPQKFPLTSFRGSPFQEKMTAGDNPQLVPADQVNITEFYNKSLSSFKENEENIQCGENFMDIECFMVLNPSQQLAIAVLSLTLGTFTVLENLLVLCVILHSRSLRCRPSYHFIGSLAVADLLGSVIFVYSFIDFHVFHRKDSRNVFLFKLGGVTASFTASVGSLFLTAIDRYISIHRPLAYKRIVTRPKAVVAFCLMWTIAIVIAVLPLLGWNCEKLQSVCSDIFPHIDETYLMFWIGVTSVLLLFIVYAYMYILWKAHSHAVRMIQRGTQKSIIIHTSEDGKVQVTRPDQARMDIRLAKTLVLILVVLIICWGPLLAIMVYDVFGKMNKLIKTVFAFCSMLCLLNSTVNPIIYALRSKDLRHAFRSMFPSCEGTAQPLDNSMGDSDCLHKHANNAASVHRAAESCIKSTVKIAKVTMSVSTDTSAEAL

Consider `[N-]=[N+]=Nc1ccc(-c2cc(C(=O)N[C@@H]3CCCC[C@H]3O)cnc2OCC2CC2)cc1Cl` [Cpd K, 5-(4-azido-3-chlorophenyl)-6-(cyclopropylmethoxy)-N-[(1R,2R)-2-hydroxycyclohexyl]-3-pyridine-carboxamide], for which the “Reduction of binding/crosslinking to OSBPL7 by mutation K636A” value in assay [1] was ~ 75%. Also, in assay [2] (average of 3), the “ABCA1 percentage of induction, average” value is listed as 49%. In addition, in assay [2] (average(SEM)), the “ABCA1 Efflux %” value was 49(10.7) %. Further, in assay [3] (average of 3), the “OSBP7 percentage of inhibition, average” value came to 68%. The “OSBPL7 Competition %” value in assay [3] (average(SEM)) is recorded as 68(3.8) %. The “OSBP7 percentage of inhibition” value in assay [3] (single experiments (3 per compound)) was 62% and 75% and 68%. In assay [3] (unlabeled Cpd K at 50-fold excess, Cpd A, Cpd G 10 and 50 µM), the “Competition for ^3H-Cpd K binding to OSBPL7” value is reported as “effectively competed”. Moreover, the Ki – broadly, a dissociation constant, usually derived from enzyme kinetics or from competition with a known ligand – in assay [4] was found to be 2570 nM. Further, the “Fold reduced affinity for hCB1R” value in assay [4] (vs Cpd H) is listed as “more than 200 fold”.
With `[3H]c1nc(OCC2CC2)c(-c2ccc(N=[N+]=[N-])c(Cl)c2)c([3H])c1C(=O)N[C@@H]1CCCC[C@H]1O` [^3H-Cpd K], the “Reduction of binding/crosslinking to OSBPL7 by mutation K636A” value in assay [1] was ~ 75%. In addition, in assay [2] (THP-1, apoAI-dependent cholesterol efflux from human THP1 cells), the EC50 – broadly, the concentration at which the effect is half-maximal – was 200 nM. Further, in assay [4], the Ki is 2570 nM.
As for `CCOC(=O)C(CCc1ccccc1)NC(C)C(=O)N1C(C(=O)O)CC2CCCC21` (centres unmarked) [Ramp], in assay [5], the BUN was 33 mg/dL and 30 mg/dL and 43 mg/dL and 36 mg/dL and 26 mg/dL and 46 mg/dL and 42 mg/dL and 39 mg/dL; the “Serum Creatinine” value is 1.99 µg/mL and 0.12 µg/mL and 2 µg/mL and 3.6 µg/mL and 0.9 µg/mL and 0.28 µg/mL and 1.66 µg/mL.
